Values of other authors as cited in patent US20240009181A1, “METHOD FOR THE TREATMENT AND PROPHYLAXIS OF SUBSTANCE-RELATED AND/OR ADDICTIVE DISORDERS INCLUDING SUBSTANCE/MEDICATION-INDUCED DEPRESSIVE DISORDERS, BIPOLAR AND RELATED DISORDERS, AND ANXIETY DISORDERS AND COMPOSITIONS USEFUL FOR THE SAME” (priority 2022, published 2024).

Experiments:
[1] = in vivo
opioid use disorder = conditions: vs. 23% given placebo

SMILES | half-life [1] | complete abstinence (opioid-free over 19 weeks of treatment), share of subjects (opioid use disorder) [%]
O=C1CCc2ccc(OCCCCN3CCN(c4cccc(Cl)c4Cl)CC3)cc2N1 [aripiprazole] | about 75 hours | 
O=c1ccc2ccc(OCCCCN3CCN(c4cccc5sccc45)CC3)cc2[nH]1 [brexpiprazole] | about 91 hours | 
O=C1CC[C@@]2(O)[C@H]3Cc4ccc(O)c5c4[C@@]2(CCN3CC2CC2)[C@H]1O5 [naltrexone] |  | 36
CC1(C)O[C@@H]2[C@@H](CO[C@@]3(COS(N)(=O)=O)OC(C)(C)O[C@@H]23)O1 [topiramate] | about 21 hours | 
